Key:
Format in all cases: functional
HOP-92 [1] = experiment: Growth inhibition of human HOP92 cells incubated for 48 hrs by sulforhodamine B assay; conditions: HOP-92, 48 h
NCI-H322M = experiment: Growth inhibition of human NCI-H322M cells incubated for 48 hrs by sulforhodamine B assay
OVCAR-5 = experiment: Growth inhibition of human OVCAR5 cells incubated for 48 hrs by sulforhodamine B assay; conditions: OVCAR-5, 48 h
RXF 393 [2] = experiment: Growth inhibition of human RXF393 cells incubated for 48 hrs by sulforhodamine B assay; conditions: RXF 393, 48 h
RPMI-8226 = experiment: Growth inhibition of human RPMI8226 cells assessed as cell growth at 0.01 uM incubated for 48 hrs by sulforhodamine B assay relative to control; conditions: RPMI-8226, 48 h, read-out: Activity
COLO 205 = experiment: Growth inhibition of human COLO205 cells assessed as cell growth at 0.01 uM incubated for 48 hrs by sulforhodamine B assay relative to control; conditions: COLO 205, 48 h, read-out: Activity
RXF 393 [3] = experiment: Growth inhibition of human RXF393 cells assessed as cell growth at 0.01 uM incubated for 48 hrs by sulforhodamine B assay relative to control; conditions: RXF 393, 48 h, read-out: Activity
TK-10 [4] = experiment: Growth inhibition of human TK10 cells assessed as cell growth at 0.01 uM incubated for 48 hrs by sulforhodamine B assay relative to control; conditions: TK-10, 48 h, read-out: Activity
Hs-578T = experiment: Growth inhibition of human Hs 578T cells assessed as cell growth at 0.01 uM incubated for 48 hrs by sulforhodamine B assay relative to control; conditions: read-out: Activity
K562 = experiment: Growth inhibition of human K562 cells assessed as cell growth at 0.1 uM incubated for 48 hrs by sulforhodamine B assay relative to control; conditions: K562, 48 h, read-out: Activity
NCI-H522 = experiment: Growth inhibition of human NCI-H522 cells assessed as cell growth at 0.1 uM incubated for 48 hrs by sulforhodamine B assay relative to control; conditions: NCI-H522, 48 h, read-out: Activity
SW-620 [5] = experiment: Growth inhibition of human SW620 cells assessed as cell growth at 0.1 uM incubated for 48 hrs by sulforhodamine B assay relative to control; conditions: SW-620, 48 h, read-out: Activity
SF-268 = experiment: Growth inhibition of human SF268 cells assessed as cell growth at 0.1 uM incubated for 48 hrs by sulforhodamine B assay relative to control; conditions: SF-268, 48 h, read-out: Activity
ACHN [6] = experiment: Growth inhibition of human ACHN cells assessed as cell growth at 0.1 uM incubated for 48 hrs by sulforhodamine B assay relative to control; conditions: read-out: Activity
RXF 393 [7] = experiment: Growth inhibition of human RXF393 cells assessed as cell growth at 0.1 uM incubated for 48 hrs by sulforhodamine B assay relative to control; conditions: RXF 393, 48 h, read-out: Activity
TK-10 [8] = experiment: Growth inhibition of human TK10 cells assessed as cell growth at 0.1 uM incubated for 48 hrs by sulforhodamine B assay relative to control; conditions: TK-10, 48 h, read-out: Activity
NCI-H460 = experiment: Growth inhibition of human NCI-H460 cells assessed as cell growth at 1 uM incubated for 48 hrs by sulforhodamine B assay relative to control; conditions: NCI-H460, 48 h, read-out: Activity
HCT-15 = experiment: Growth inhibition of human HCT15 cells assessed as cell growth at 1 uM incubated for 48 hrs by sulforhodamine B assay relative to control; conditions: HCT-15, 48 h, read-out: Activity
HT-29 = experiment: Growth inhibition of human HT-29 cells assessed as cell growth at 1 uM incubated for 48 hrs by sulforhodamine B assay relative to control; conditions: HT-29, 48 h, read-out: Activity
SW-620 [9] = experiment: Growth inhibition of human SW620 cells assessed as cell growth at 1 uM incubated for 48 hrs by sulforhodamine B assay relative to control; conditions: SW-620, 48 h, read-out: Activity
MDA-MB-435 = experiment: Growth inhibition of human MDA-MB-435 cells assessed as cell growth at 1 uM incubated for 48 hrs by sulforhodamine B assay relative to control; conditions: MDA-MB-435, 48 h, read-out: Activity
ACHN [10] = experiment: Growth inhibition of human ACHN cells assessed as cell growth at 1 uM incubated for 48 hrs by sulforhodamine B assay relative to control; conditions: read-out: Activity
CAKI-1 = experiment: Growth inhibition of human Caki1 cells assessed as cell growth at 1 uM incubated for 48 hrs by sulforhodamine B assay relative to control; conditions: CAKI-1, 48 h, read-out: Activity
UO-31 = experiment: Growth inhibition of human UO31 cells assessed as cell growth at 1 uM incubated for 48 hrs by sulforhodamine B assay relative to control; conditions: UO-31, 48 h, read-out: Activity
DU-145 = experiment: Growth inhibition of human DU145 cells assessed as cell growth at 1 uM incubated for 48 hrs by sulforhodamine B assay relative to control; conditions: DU-145, 48 h, read-out: Activity
MDA-MB-231 = experiment: Growth inhibition of human MDA-MB-231 cells assessed as cell growth at 1 uM incubated for 48 hrs by sulforhodamine B assay relative to control; conditions: MDA-MB-231, 48 h, read-out: Activity
CCRF-CEM = experiment: Growth inhibition of human CCRF-CEM cells assessed as cell growth at 100 uM incubated for 48 hrs by sulforhodamine B assay relative to control; conditions: read-out: Activity
HOP-92 [11] = experiment: Growth inhibition of human HOP92 cells assessed as cell growth at 100 uM incubated for 48 hrs by sulforhodamine B assay relative to control; conditions: HOP-92, 48 h, read-out: Activity
KM12 = experiment: Growth inhibition of human KM12 cells assessed as cell growth at 100 uM incubated for 48 hrs by sulforhodamine B assay relative to control; conditions: KM12, 48 h, read-out: Activity
SNB-75 = experiment: Growth inhibition of human SNB75 cells assessed as cell growth at 100 uM incubated for 48 hrs by sulforhodamine B assay relative to control; conditions: SNB-75, 48 h, read-out: Activity
IGROV-1 = experiment: Growth inhibition of human IGROV1 cells assessed as cell growth at 100 uM incubated for 48 hrs by sulforhodamine B assay relative to control; conditions: IGROV-1, 48 h, read-out: Activity
[12] = read-out: LC50 (the source's name)
[13] = read-out: pLC50 (the source's name) (converted)

c1ccc2c3c([nH]c2c1)C(c1ccc(C2NCCc4c2[nH]c2ccccc42)cc1)NCC3 (racemic)
CC50 (HOP-92 [1]; [12]): 9.59 µM
GI50 (HOP-92 [1]; read-out: pGI50 (converted)): 0.724 µM
CC50 (HOP-92 [1]; [13]): 9.55 µM
TGI (HOP-92 [1]; read-out: pTGI (converted)): 2.88 µM
GI50 (NCI-H322M; read-out: GI50): 1.25 µM
CC50 (NCI-H322M; [12]): 5.68 µM
TGI (NCI-H322M; read-out: TGI): 2.66 µM
GI50 (NCI-H322M; read-out: pGI50 (converted)): 1.26 µM
CC50 (NCI-H322M; [13]): 5.62 µM
TGI (NCI-H322M; read-out: pTGI (converted)): 2.69 µM
GI50 (OVCAR-5; read-out: GI50): 1.8 µM
CC50 (OVCAR-5; [12]): 9.65 µM
TGI (OVCAR-5; read-out: TGI): 4.17 µM
GI50 (OVCAR-5; read-out: pGI50 (converted)): 1.82 µM
CC50 (OVCAR-5; [13]): 9.55 µM
TGI (OVCAR-5; read-out: pTGI (converted)): 4.17 µM
GI50 (RXF 393 [2]; read-out: GI50): 1.31 µM
CC50 (RXF 393 [2]; [12]): 5.45 µM
TGI (RXF 393 [2]; read-out: TGI): 2.67 µM
GI50 (RXF 393 [2]; read-out: pGI50 (converted)): 1.32 µM
CC50 (RXF 393 [2]; [13]): 5.5 µM
TGI (RXF 393 [2]; read-out: pTGI (converted)): 2.69 µM
growth at 0.01 µM (RPMI-8226): 102%
growth at 0.01 µM (COLO 205): 95%
growth at 0.01 µM (RXF 393 [3]): 101%
growth at 0.01 µM (TK-10 [4]): 97%
growth at 0.01 µM (Hs-578T): 93%
growth at 0.1 µM (K562): 114%
growth at 0.1 µM (NCI-H522): 105%
growth at 0.1 µM (SW-620 [5]): 100%
growth at 0.1 µM (SF-268): 89%
growth at 0.1 µM (ACHN [6]): 97%
growth at 0.1 µM (RXF 393 [7]): 101%
growth at 0.1 µM (TK-10 [8]): 96%
growth at 1 µM (NCI-H460): 56%
growth at 1 µM (HCT-15): 24%
growth at 1 µM (HT-29): 16%
growth at 1 µM (SW-620 [9]): 86%
growth at 1 µM (MDA-MB-435): 11%
growth at 1 µM (ACHN [10]): 42%
growth at 1 µM (CAKI-1): 78%
growth at 1 µM (UO-31): 52%
growth at 1 µM (DU-145): 43%
growth at 1 µM (MDA-MB-231): 3%
growth at 100 µM (CCRF-CEM): 68%
growth at 100 µM (HOP-92 [11]): 90%
growth at 100 µM (KM12): 88%
growth at 100 µM (SNB-75): 98%
growth at 100 µM (IGROV-1): 89%

c1ccc2[nH]c(-c3ccc(-c4nccc5c4[nH]c4ccccc45)cc3)nc2c1
GI50 (HOP-92 [1]; read-out: GI50): 2.06 µM
CC50 (HOP-92 [1]; [12]): 2.98 µM
TGI (HOP-92 [1]; read-out: TGI): 5.79 µM
GI50 (HOP-92 [1]; read-out: pGI50 (converted)): 2.04 µM
CC50 (HOP-92 [1]; [13]): 29.5 µM
TGI (HOP-92 [1]; read-out: pTGI (converted)): 5.75 µM
GI50 (NCI-H322M; read-out: GI50): 2.86 µM
CC50 (NCI-H322M; [12]): 4.41 µM
TGI (NCI-H322M; read-out: TGI): 8.9 µM
GI50 (NCI-H322M; read-out: pGI50 (converted)): 2.88 µM
CC50 (NCI-H322M; [13]): 43.7 µM
TGI (NCI-H322M; read-out: pTGI (converted)): 8.91 µM
GI50 (OVCAR-5; read-out: GI50): 2.43 µM
CC50 (OVCAR-5; [12]): 5 µM
TGI (OVCAR-5; read-out: TGI): 6.47 µM
GI50 (OVCAR-5; read-out: pGI50 (converted)): 2.45 µM
CC50 (OVCAR-5; [13]): 50.1 µM
TGI (OVCAR-5; read-out: pTGI (converted)): 6.46 µM
GI50 (RXF 393 [2]; read-out: GI50): 1.93 µM
CC50 (RXF 393 [2]; [12]): 6.45 µM
TGI (RXF 393 [2]; read-out: TGI): 3.53 µM
GI50 (RXF 393 [2]; read-out: pGI50 (converted)): 1.95 µM
CC50 (RXF 393 [2]; [13]): 6.46 µM
TGI (RXF 393 [2]; read-out: pTGI (converted)): 3.55 µM
growth at 0.01 µM (RPMI-8226): 106%
growth at 0.01 µM (COLO 205): 94%
growth at 0.01 µM (RXF 393 [3]): 106%
growth at 0.01 µM (TK-10 [4]): 96%
growth at 0.01 µM (Hs-578T): 99%
growth at 0.1 µM (K562): 108%
growth at 0.1 µM (NCI-H522): 94%
growth at 0.1 µM (SW-620 [5]): 103%
growth at 0.1 µM (SF-268): 96%
growth at 0.1 µM (ACHN [6]): 98%
growth at 0.1 µM (RXF 393 [7]): 108%
growth at 0.1 µM (TK-10 [8]): 94%
growth at 1 µM (NCI-H460): 97%
growth at 1 µM (HCT-15): 93%
growth at 1 µM (HT-29): 106%
growth at 1 µM (SW-620 [9]): 96%
growth at 1 µM (MDA-MB-435): 91%
growth at 1 µM (ACHN [10]): 101%
growth at 1 µM (CAKI-1): 91%
growth at 1 µM (UO-31): 90%
growth at 1 µM (DU-145): 97%
growth at 1 µM (MDA-MB-231): 99%
growth at 100 µM (CCRF-CEM): 29%
growth at 100 µM (HOP-92 [11]): 76%
growth at 100 µM (KM12): 76%
growth at 100 µM (SNB-75): 84%
growth at 100 µM (IGROV-1): 47%

Reference: ChEMBL document CHEMBL4004838, “Design and synthesis of novel phenyl -1, 4-beta-carboline-hybrid molecules as potential anticancer agents” (Eur J Med Chem, 2017)
